In ChEMBL document CHEMBL3856187, “Cyclin Dependent Kinase 9 Inhibitors for Cancer Therapy” (J Med Chem, 2016):

Experiments:
[1] = Cytotoxicity against human HeLa cells assessed as decrease in cell viability after 72 hrs by MTT assay; assay type: toxicity, cell-based
Homo sapiens = experiment: Anticancer activity in human AML patient assessed as improvement in remission rate at 50 mg/m2, iv for 1 to 3 days followed by cytarabine dose at 667 mg/m2/day as 72 hrs continuous infusion for 6 to 8 days and mitoxantrone at 40 mg/m2 administered on day 9; assay type: functional
CDK2/Cyclin A2 [2] = molecular target: T1, CDK2/Cyclin A2 (Homo sapiens, UniProt P24941); experiment: Inhibition of recombinant human N-terminal GST-tagged CDK2/cyclin A expressed in baculovirus expression system using retinoblastoma (792 to 928 residues) as substrate after 30 mins by gamma32P-ATP based scintillation counting analysis
[3] = molecular target: Cyclin-dependent kinase 4/cyclin D1 (Homo sapiens, UniProt P11802); experiment: Inhibition of human N-terminal GST-tagged CDK4/cyclin D1 expressed in baculovirus infected Sf9 insect cells using retinoblastoma (792 to 928 residues) as substrate after 30 mins by gamma32P-ATP based scintillation counting analysis
Sequence of Cyclin-dependent kinase 4/cyclin D1 (P11802 whole entry, the tested form may be a part): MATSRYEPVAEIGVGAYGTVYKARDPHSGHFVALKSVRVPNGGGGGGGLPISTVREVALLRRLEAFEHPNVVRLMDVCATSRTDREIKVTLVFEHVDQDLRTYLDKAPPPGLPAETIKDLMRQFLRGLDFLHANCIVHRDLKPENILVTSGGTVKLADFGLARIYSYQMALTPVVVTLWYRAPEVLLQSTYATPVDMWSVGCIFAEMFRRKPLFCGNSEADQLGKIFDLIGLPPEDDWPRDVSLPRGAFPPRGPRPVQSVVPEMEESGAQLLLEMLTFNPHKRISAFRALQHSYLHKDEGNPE
Sequence of Cyclin-dependent kinase 4/cyclin D1 (P24385 whole entry, further chain, the tested form may be a part): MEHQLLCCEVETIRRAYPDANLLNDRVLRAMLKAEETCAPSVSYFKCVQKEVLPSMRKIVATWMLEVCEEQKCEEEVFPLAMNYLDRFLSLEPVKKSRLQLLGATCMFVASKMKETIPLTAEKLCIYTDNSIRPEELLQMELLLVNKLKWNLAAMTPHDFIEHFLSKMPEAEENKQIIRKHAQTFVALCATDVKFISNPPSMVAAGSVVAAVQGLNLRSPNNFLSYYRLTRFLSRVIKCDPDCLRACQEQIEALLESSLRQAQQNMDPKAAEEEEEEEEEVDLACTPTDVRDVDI

[4] = molecular target: Cyclin-dependent kinase 2/cyclin E1 (Homo sapiens, UniProt P24941); experiment: Inhibition of human CDK2/cyclin E expressed in baculovirus infected Sf9 insect cells using retinoblastoma (792 to 928 residues) as substrate after 30 mins by gamma32P-ATP based scintillation counting analysis
[5] = Inhibition of CDK6/cyclin D (unknown origin); design: species or system Homo sapiens
CDK7/Cyclin H/MNAT1 = CDK7/Cyclin H/MNAT1 (Homo sapiens, UniProt P50613); experiment: Inhibition of CDK7/cyclin H/MAT1 (unknown origin); assay type: protein-complex assay
Sequence of CDK7/Cyclin H/MNAT1 (P51946 whole entry): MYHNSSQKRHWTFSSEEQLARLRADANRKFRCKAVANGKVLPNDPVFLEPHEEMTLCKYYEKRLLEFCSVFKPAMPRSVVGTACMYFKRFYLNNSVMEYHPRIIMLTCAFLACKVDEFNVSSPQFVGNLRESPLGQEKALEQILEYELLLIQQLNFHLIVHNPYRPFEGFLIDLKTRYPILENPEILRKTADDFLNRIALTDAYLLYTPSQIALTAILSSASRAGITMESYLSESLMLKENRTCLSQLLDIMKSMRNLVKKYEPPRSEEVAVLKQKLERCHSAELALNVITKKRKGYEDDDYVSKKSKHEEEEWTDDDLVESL
Sequence of CDK7/Cyclin H/MNAT1 (P50613 whole entry): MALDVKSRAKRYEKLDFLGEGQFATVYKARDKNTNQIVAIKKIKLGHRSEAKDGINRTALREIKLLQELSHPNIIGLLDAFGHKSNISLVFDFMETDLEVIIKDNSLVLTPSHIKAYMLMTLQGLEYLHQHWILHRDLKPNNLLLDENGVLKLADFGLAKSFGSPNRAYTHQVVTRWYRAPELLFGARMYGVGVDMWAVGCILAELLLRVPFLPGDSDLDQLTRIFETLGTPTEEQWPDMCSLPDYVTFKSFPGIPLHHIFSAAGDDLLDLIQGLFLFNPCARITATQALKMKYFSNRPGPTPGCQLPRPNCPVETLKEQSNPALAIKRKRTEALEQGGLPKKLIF
Sequence of CDK7/Cyclin H/MNAT1 (P51948 whole entry, further chain): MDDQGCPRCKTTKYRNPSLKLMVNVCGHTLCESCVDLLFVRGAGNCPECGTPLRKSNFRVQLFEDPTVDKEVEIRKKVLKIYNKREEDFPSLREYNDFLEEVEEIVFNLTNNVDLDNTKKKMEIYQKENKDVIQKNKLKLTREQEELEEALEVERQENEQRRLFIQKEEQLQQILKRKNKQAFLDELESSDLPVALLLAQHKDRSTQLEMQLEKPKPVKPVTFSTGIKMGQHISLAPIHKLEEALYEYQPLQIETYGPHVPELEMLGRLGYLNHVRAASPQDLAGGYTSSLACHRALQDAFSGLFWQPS

[6] = molecular target: Cyclin-dependent kinase 1/cyclin B1 (Homo sapiens, UniProt P06493); assay type: protein-complex assay
Sequence of Cyclin-dependent kinase 1/cyclin B1 (P06493 whole entry): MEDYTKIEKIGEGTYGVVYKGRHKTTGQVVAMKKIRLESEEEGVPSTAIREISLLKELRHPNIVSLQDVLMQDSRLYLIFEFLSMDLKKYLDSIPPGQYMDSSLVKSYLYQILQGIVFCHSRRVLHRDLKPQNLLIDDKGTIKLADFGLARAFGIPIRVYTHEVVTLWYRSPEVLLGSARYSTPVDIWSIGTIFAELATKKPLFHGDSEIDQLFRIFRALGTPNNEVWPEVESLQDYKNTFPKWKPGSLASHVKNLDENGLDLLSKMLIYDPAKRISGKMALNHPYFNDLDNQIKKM
Sequence of Cyclin-dependent kinase 1/cyclin B1 (P14635 whole entry, further chain): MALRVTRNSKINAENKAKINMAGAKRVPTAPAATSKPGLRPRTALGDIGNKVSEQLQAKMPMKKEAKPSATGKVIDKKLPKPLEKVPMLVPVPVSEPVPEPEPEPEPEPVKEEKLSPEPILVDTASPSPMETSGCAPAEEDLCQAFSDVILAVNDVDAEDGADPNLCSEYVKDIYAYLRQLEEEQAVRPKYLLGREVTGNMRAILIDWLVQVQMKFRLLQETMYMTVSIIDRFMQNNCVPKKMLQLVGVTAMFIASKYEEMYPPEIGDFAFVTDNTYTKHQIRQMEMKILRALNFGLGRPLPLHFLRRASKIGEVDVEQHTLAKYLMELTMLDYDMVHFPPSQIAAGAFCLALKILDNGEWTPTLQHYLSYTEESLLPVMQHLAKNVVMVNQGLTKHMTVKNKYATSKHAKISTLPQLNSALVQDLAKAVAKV
Description: Inhibition of CDK1/cyclin B (unknown origin)

[7] = molecular target: Cyclin-dependent kinase 5/CDK5 activator 1 (Homo sapiens, UniProt Q00535); experiment: Inhibition of CDK5/p25 (unknown origin); assay type: protein-complex assay
Sequence of Cyclin-dependent kinase 5/CDK5 activator 1 (Q00535 whole entry): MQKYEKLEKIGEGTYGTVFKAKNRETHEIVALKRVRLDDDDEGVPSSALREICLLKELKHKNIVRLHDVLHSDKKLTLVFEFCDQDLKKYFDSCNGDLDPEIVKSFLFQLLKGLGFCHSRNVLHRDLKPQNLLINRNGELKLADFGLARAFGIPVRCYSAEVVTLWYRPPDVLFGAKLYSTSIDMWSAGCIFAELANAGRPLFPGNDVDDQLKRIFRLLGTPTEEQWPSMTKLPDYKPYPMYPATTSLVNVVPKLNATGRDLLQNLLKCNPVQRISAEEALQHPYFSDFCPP
Sequence of Cyclin-dependent kinase 5/CDK5 activator 1 (Q15078 whole entry, further chain): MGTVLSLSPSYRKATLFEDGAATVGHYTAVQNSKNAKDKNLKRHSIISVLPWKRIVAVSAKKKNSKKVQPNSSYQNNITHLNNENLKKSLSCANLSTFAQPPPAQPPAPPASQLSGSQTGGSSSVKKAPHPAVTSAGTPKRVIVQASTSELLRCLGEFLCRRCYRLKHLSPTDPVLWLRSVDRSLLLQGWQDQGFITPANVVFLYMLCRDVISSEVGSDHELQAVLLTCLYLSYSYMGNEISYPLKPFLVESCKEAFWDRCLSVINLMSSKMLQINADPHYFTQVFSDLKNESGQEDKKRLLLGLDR

[8] = molecular target: Cyclin-dependent kinase 4/G1/S-specific cyclin-E1 (Homo sapiens, UniProt P11802); experiment: Inhibition of CDK4/cyclin E (unknown origin); assay type: protein-complex assay
Sequence of Cyclin-dependent kinase 4/G1/S-specific cyclin-E1 (P11802 whole entry): as the sequence (P11802 whole entry, the tested form may be a part) above
Sequence of Cyclin-dependent kinase 4/G1/S-specific cyclin-E1 (P24864 whole entry, further chain): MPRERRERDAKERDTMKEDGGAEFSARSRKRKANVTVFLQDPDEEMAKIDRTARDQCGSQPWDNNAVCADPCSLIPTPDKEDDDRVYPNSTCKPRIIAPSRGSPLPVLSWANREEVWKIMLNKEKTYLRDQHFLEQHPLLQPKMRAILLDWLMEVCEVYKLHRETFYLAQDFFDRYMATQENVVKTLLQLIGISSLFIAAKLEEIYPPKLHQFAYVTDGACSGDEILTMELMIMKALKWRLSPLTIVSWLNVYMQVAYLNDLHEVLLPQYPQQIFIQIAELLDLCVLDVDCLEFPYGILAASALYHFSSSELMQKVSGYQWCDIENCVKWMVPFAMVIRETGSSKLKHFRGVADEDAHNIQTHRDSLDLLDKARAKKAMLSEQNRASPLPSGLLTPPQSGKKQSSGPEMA

[9] = molecular target: Cyclin-dependent kinase 7/ cyclin H (Homo sapiens, UniProt P50613); experiment: Inhibition of CDK7/cyclin H (unknown origin); assay type: protein-complex assay
Sequence of Cyclin-dependent kinase 7/ cyclin H (P51946 whole entry): as the sequence (P51946 whole entry) above
Sequence of Cyclin-dependent kinase 7/ cyclin H (P50613 whole entry): as the sequence (P50613 whole entry) above

CDK2/Cyclin A2 [10] = molecular target: T1, CDK2/Cyclin A2; experiment: Inhibition of CDK2/cyclin A (unknown origin); assay type: protein-complex assay

CN1CC[C@H](c2c(O)cc(O)c3c(=O)cc(-c4ccccc4Cl)oc23)[C@H](O)C1 [ALVOCIDIB]
CC50 at 72 h [1]: 120 nM | Activity (Homo sapiens): 67 - 80%

CN1CC[C@@H](c2c(O)cc(O)c3c(=O)cc(-c4ccccc4Cl)oc23)[C@@H]1CO
IC50 (CDK2/Cyclin A2 [2]): 224 nM | IC50 [3]: 63 nM | IC50 [4]: 2540 nM | IC50 [5]: 396 nM | IC50 (CDK7/Cyclin H/MNAT1): 2870 nM | IC50 [6]: 79 nM

CC[C@H](Nc1nc(NCc2cnc(C)cc2C)c2ncn(C(C)C)c2n1)[C@@H](C)O [CYC-065]
IC50 [7]: 21 nM | IC50 [8]: 232 nM | IC50 [9]: 193 nM | IC50 [6]: 578 nM | IC50 (CDK2/Cyclin A2 [10]): 5 nM
